Measurements: PubChem BioAssay (NCI)
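Cells were grown in 96-well plates and exposed to each compound for 48 hours at five concentrations; endpoints were interpolated linearly between bracketing concentrations, or set to the highest concentration if not reached. GI50 is the concentration that inhibits growth by half. Definition used: TGI = concentration required for complete inhibition of growth.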

Assays:
Assay in all cases: NCI tumour cell line growth inhibition, 48 h
HCC-2998 colon = test system: HCC-2998 colon
OVCAR-8 ovarian = test system: OVCAR-8 ovarian
IGROV1 ovarian = test system: IGROV1 ovarian
BT-549 breast = test system: BT-549 breast
NCI-H23 lung = test system: NCI-H23 lung
HCT-15 colon = test system: HCT-15 colon
UACC-257 melanoma = test system: UACC-257 melanoma
RXF 393 renal = test system: RXF 393 renal
786-0 renal = test system: 786-0 renal
SR leukemia = test system: SR leukemia
MDA-MB-435 = test system: MDA-MB-435
OVCAR-3 ovarian = test system: OVCAR-3 ovarian
MDA-N = test system: MDA-N
NCI-H226 lung = test system: NCI-H226 lung
SK-MEL-28 melanoma = test system: SK-MEL-28 melanoma
A498 renal = test system: A498 renal
CCRF-CEM leukemia = test system: CCRF-CEM leukemia
UACC-62 melanoma = test system: UACC-62 melanoma
EKVX NSCLC = test system: EKVX NSCLC
HOP-92 NSCLC = test system: HOP-92 NSCLC
RPMI-8226 leukemia = test system: RPMI-8226 leukemia
TK-10 renal = test system: TK-10 renal
NCI-H522 lung = test system: NCI-H522 lung
SK-MEL-2 melanoma = test system: SK-MEL-2 melanoma
U251 CNS = test system: U251 CNS
SK-MEL-5 melanoma = test system: SK-MEL-5 melanoma
SF-268 CNS = test system: SF-268 CNS
CAKI-1 renal = test system: CAKI-1 renal
OVCAR-4 ovarian = test system: OVCAR-4 ovarian
MDA-MB-231 breast = test system: MDA-MB-231 breast
SK-OV-3 ovarian = test system: SK-OV-3 ovarian
COLO 205 colon = test system: COLO 205 colon
UO-31 renal = test system: UO-31 renal
SF-539 CNS = test system: SF-539 CNS
LOX IMVI melanoma = test system: LOX IMVI melanoma
HS 578T breast = test system: HS 578T breast
M14 melanoma = test system: M14 melanoma
HL-60(TB) leukemia = test system: HL-60(TB) leukemia
K-562 leukemia = test system: K-562 leukemia
SW-620 colon = test system: SW-620 colon
HCT-116 colon = test system: HCT-116 colon
ACHN renal = test system: ACHN renal
MALME-3M melanoma = test system: MALME-3M melanoma
NCI-H460 lung = test system: NCI-H460 lung
HOP-62 NSCLC = test system: HOP-62 NSCLC
SNB-75 CNS = test system: SNB-75 CNS
DU-145 prostate = test system: DU-145 prostate
SNB-19 CNS = test system: SNB-19 CNS
HT29 colon = test system: HT29 colon
OVCAR-5 ovarian = test system: OVCAR-5 ovarian
MCF7 breast = test system: MCF7 breast
A549 NSCLC = test system: A549 NSCLC
MOLT-4 leukemia = test system: MOLT-4 leukemia
PC-3 prostate = test system: PC-3 prostate
SF-295 CNS = test system: SF-295 CNS
SN12C renal = test system: SN12C renal
KM12 colon = test system: KM12 colon
NCI/ADR-RES ovarian = test system: NCI/ADR-RES ovarian
T-47D breast = test system: T-47D breast

Compound CC1(O)CC(=O)c2c(cc3ccc(-c4c5c(c(O)c6c(O)cccc46)C(=O)CC(C)(O)C5)c(O)c3c2O)C1 (stereo unspecified) has a TGI (HCC-2998 colon) of 1.07 µM, a TGI (OVCAR-8 ovarian) of 3.76 µM and a TGI (IGROV1 ovarian) of 3.43 µM. For the same compound, the TGI (BT-549 breast) was 6.75 µM, the TGI (NCI-H23 lung) was 1.35 µM and the TGI (HCT-15 colon) was 4.08 µM. It also gave a TGI (UACC-257 melanoma) of 1.3 µM, a TGI (RXF 393 renal) of 1.11 µM and a TGI (786-0 renal) of 7.64 µM. The TGI (SR leukemia) was 7.06 µM, the TGI (MDA-MB-435) was 1.97 µM and the TGI (OVCAR-3 ovarian) was 0.646 µM. The TGI (MDA-N) was 14.2 µM, the TGI (NCI-H226 lung) was 2.16 µM and the TGI (SK-MEL-28 melanoma) was 7.01 µM. It also gave a TGI (A498 renal) of 3.53 µM, a TGI (CCRF-CEM leukemia) of 10.5 µM and a TGI (UACC-62 melanoma) greater than 100 µM. It also gave a TGI (EKVX NSCLC) of 4.35 µM, a TGI (HOP-92 NSCLC) of 0.815 µM and a TGI (RPMI-8226 leukemia) of 2.8 µM. It also gave a TGI (TK-10 renal) of 10.3 µM, a TGI (NCI-H522 lung) of 1.12 µM and a TGI (SK-MEL-2 melanoma) of 0.897 µM. For the same compound, the TGI (U251 CNS) was 1.74 µM, the TGI (SK-MEL-5 melanoma) was 0.495 µM and the TGI (SF-268 CNS) was 1.81 µM. It also gave a TGI (CAKI-1 renal) of 2.92 µM, a TGI (OVCAR-4 ovarian) of 12.9 µM and a TGI (MDA-MB-231 breast) of 3.93 µM. It also gave a TGI (SK-OV-3 ovarian) greater than 100 µM, a GI50 (COLO 205 colon) of 0.0361 µM and a TGI (COLO 205 colon) of 0.158 µM. The TGI (UO-31 renal) was 0.726 µM, the TGI (SF-539 CNS) was 2.34 µM and the TGI (LOX IMVI melanoma) was 5.41 µM. For the same compound, the TGI (HS 578T breast) was 4.4 µM, the TGI (M14 melanoma) was 7.11 µM and the TGI (HL-60(TB) leukemia) was 0.772 µM. It also gave a TGI (K-562 leukemia) of 11.9 µM, a TGI (SW-620 colon) of 18.9 µM and a TGI (HCT-116 colon) of 3.86 µM. The TGI (ACHN renal) was 11 µM, the TGI (MALME-3M melanoma) was 1.61 µM and the TGI (NCI-H460 lung) was 5.64 µM. For the same compound, the TGI (HOP-62 NSCLC) was 1.55 µM, the TGI (SNB-75 CNS) was 0.773 µM and the TGI (DU-145 prostate) was 3.43 µM. For the same compound, the TGI (SNB-19 CNS) was 4.37 µM, the TGI (HT29 colon) was 3.96 µM and the TGI (OVCAR-5 ovarian) was 8.66 µM. It also gave a TGI (MCF7 breast) of 1.7 µM, a TGI (A549 NSCLC) of 11.1 µM and a TGI (MOLT-4 leukemia) of 8.36 µM. It also gave a TGI (PC-3 prostate) of 11.2 µM, a TGI (SF-295 CNS) of 0.874 µM and a TGI (SN12C renal) of 13.1 µM. For the same compound, the TGI (KM12 colon) was 0.24 µM and the TGI (NCI/ADR-RES ovarian) was 6.63 µM.

Compound Cc1ccc2c(c1C)C(=O)/C(=C/c1ccccc1C(=O)O)C2 has a TGI (HCC-2998 colon) greater than 100 µM, a TGI (OVCAR-8 ovarian) greater than 100 µM and a TGI (IGROV1 ovarian) greater than 100 µM. The TGI (BT-549 breast) was greater than 100 µM, the TGI (NCI-H23 lung) was greater than 100 µM and the TGI (HCT-15 colon) was greater than 100 µM. The TGI (UACC-257 melanoma) was greater than 100 µM, the TGI (RXF 393 renal) was greater than 100 µM and the TGI (786-0 renal) was greater than 100 µM. For the same compound, the TGI (SR leukemia) was greater than 100 µM, the TGI (MDA-MB-435) was greater than 100 µM and the TGI (OVCAR-3 ovarian) was greater than 100 µM. For the same compound, the TGI (MDA-N) was greater than 100 µM, the TGI (NCI-H226 lung) was greater than 100 µM and the TGI (SK-MEL-28 melanoma) was greater than 100 µM. It also gave a TGI (A498 renal) greater than 100 µM, a TGI (CCRF-CEM leukemia) greater than 100 µM and a TGI (UACC-62 melanoma) greater than 100 µM. The TGI (T-47D breast) was greater than 100 µM, the TGI (EKVX NSCLC) was greater than 100 µM and the TGI (HOP-92 NSCLC) was greater than 100 µM. It also gave a TGI (RPMI-8226 leukemia) greater than 100 µM, a TGI (TK-10 renal) greater than 100 µM and a TGI (NCI-H522 lung) greater than 100 µM. It also gave a TGI (SK-MEL-2 melanoma) greater than 100 µM, a TGI (U251 CNS) greater than 100 µM and a TGI (SK-MEL-5 melanoma) greater than 100 µM. For the same compound, the TGI (SF-268 CNS) was greater than 100 µM, the TGI (CAKI-1 renal) was greater than 100 µM and the TGI (OVCAR-4 ovarian) was greater than 100 µM. For the same compound, the TGI (COLO 205 colon) was greater than 100 µM, the TGI (UO-31 renal) was greater than 100 µM and the TGI (SF-539 CNS) was greater than 100 µM. The TGI (LOX IMVI melanoma) was greater than 100 µM, the TGI (HS 578T breast) was greater than 100 µM and the TGI (M14 melanoma) was greater than 100 µM. For the same compound, the TGI (HL-60(TB) leukemia) was greater than 100 µM, the TGI (K-562 leukemia) was greater than 100 µM and the TGI (SW-620 colon) was greater than 100 µM. For the same compound, the TGI (HCT-116 colon) was greater than 100 µM, the TGI (ACHN renal) was greater than 100 µM and the TGI (MALME-3M melanoma) was greater than 100 µM. For the same compound, the TGI (NCI-H460 lung) was greater than 100 µM, the TGI (HOP-62 NSCLC) was greater than 100 µM and the TGI (SNB-75 CNS) was greater than 100 µM. For the same compound, the TGI (DU-145 prostate) was greater than 100 µM, the TGI (SNB-19 CNS) was greater than 100 µM and the TGI (HT29 colon) was greater than 100 µM. It also gave a TGI (OVCAR-5 ovarian) greater than 100 µM, a TGI (MCF7 breast) greater than 100 µM and a TGI (A549 NSCLC) greater than 100 µM. For the same compound, the TGI (MOLT-4 leukemia) was greater than 100 µM, the TGI (PC-3 prostate) was greater than 100 µM and the TGI (SF-295 CNS) was greater than 100 µM. The TGI (SN12C renal) was greater than 100 µM, the TGI (KM12 colon) was greater than 100 µM and the TGI (NCI/ADR-RES ovarian) was greater than 100 µM.
